# According to patent US20200093789A1, “Cancer Treatment with a CXCL12 Signaling Inhibitor and an Immune Checkpoint Inhibitor” (The General Hospital Corporation, priority 2017, published 2020):
# “Also recorded” adds a separate entry of the source.
# How the values were obtained:
# ID8 tumor bearing mice = experiment: Survival of ID8 tumor bearing mice (AMD3100/checkpoint inhibitor combination study); type: in vivo, C57BL/6 mice; conditions: vs saline treated control; AMD3100 3 mg/kg IP every other day for three weeks alternating with αPD-1 or αPD-L1 200 μg/mouse IP; Log-rank test
# Experimental: Luciferase-expressing ID-8 ovarian cancer cells (3×10^6 cells) were injected into C57BL/6 female mice (30/group). […] Starting three weeks post tumor inoculation, AMD3100 (3 mg/kg) was injected IP every other day for three weeks alternating with αPD-1 or αPD-L1 (200 μg/mouse) by IP injection.
# Tissue Culture: The ID8 ovarian cancer cells, a kind gift from Kathy Roby (University of Kansas Medical Center, Kansas City, Kans.), were transfected with luciferase lentiviral vector and a clone stably expressing luciferase was recovered, here named Luc-ID8. Cells were maintained at 37° C. in DMEM with 2 mmol/L L-glutamine, 10 units/ml penicillin, 10 μg/ml streptomycin, and 10% fetal bovine serum in a humidified atmosphere with 5% CO2. Cells were cultured until 80% confluent, then harvested with Trypsin EDTA (Mediatech) for animal injections.
# Treatment Agents: AMD3100 was purchased from Abcam. 10 mg power was dissolved in 16.7 ml saline to achieve concentration of 0.6 mg/ml and 100 μl was injected for each treatment. Anti-mouse PD-1 and anti-mouse PD-L1 were purchased from Biocell. […]
# [1] = system: intratumoral FoxP3+ regulatory T cells (Treg); conditions: literature statement; cited from earlier work
# [2] = system: tumor-infiltrated lymphocytes; experiment: Flow cytometry immune profiling of tumor-infiltrating lymphocytes from ID8 tumors a week after the last treatment; type: in vivo, C57BL/6 mice; conditions: vs saline control
# Experimental: Luciferase-expressing ID-8 ovarian cancer cells (3×10^6 cells) were injected into C57BL/6 female mice (30/group). Tumor initiation was confirmed 20 days later by IVIS imaging, and tumor-bearing animals were randomized into the treatment groups indicated in Table 2. Starting three weeks post tumor inoculation, AMD3100 (3 mg/kg) was injected IP every other day for three weeks alternating with αPD-1 or αPD-L1 (200 μg/mouse) by IP injection. 3 mg/kg AMD3100 is the murine equivalent of the approved human dose of 0.24 mg/kg based on allometric scaling.
# Some animals from each treatment group were euthanized by i.p. administration of Ketamine (9 mg/ml in saline) and Xylazine (0.9 mg/ml in saline) a week after the last treatment for evaluation of tumor-infiltrating lymphocytes. Tumors were harvested and processed for immune profiling.
# Flow cytometry: Tumors were mechanically disaggregated using razor blades, and cells were further separated by incubation at 37° C. for 2 hours in RPMI 1640 with collagenase type IV (2 mg/ml, Sigma), hyaluronidase (0.1 mg/ml, Sigma), and BSA (2 mg/ml, Sigma). Cell suspensions were passed through 100 μm filters to remove any remaining aggregates. Cells were washed with staining buffer (Biolegend) and stained with conjugated antibodies. All live cells were determined by the LIVE/DEAD® staining (ThermoFisher). Intracellular protein detection was realized by fixation/permeabilization reagents from BioLegend or eBioscience. Flow cytometry were performed using BD LSRFortessa X-20 (BD Biosciences) and data were analyzed by FlowJo V10.
# Assessment of Results: Prism 6.0 software (GraphPad Software) was used for all statistical analyses. Statistical differences between three or more experimental groups were analyzed using Two-Way ANOVA, followed by Tukey's multiple comparison tests or Student T tests. Survival was analyzed with the Log-rank test.
# [3] = percentage of total CD8+ T cells in tumors
smiles,measurement,setting,value
"c1cc(CN2CCCNCCNCCCNCC2)ccc1CN1CCCNCCNCCCNCC1 [AMD3100, AMD3100 (plerixafor)]",survival time of ID8 tumor bearing mice,ID8 tumor bearing mice,significantly extended
same,levels of intratumoral FoxP3+ regulatory T cells (Treg),[1],can be reduced
same,proportions of CD40L+IL-2+ cells in CD4+FoxP3+CD25− population (helper-like T cells),[2]; in tumors,significantly increased; also recorded: promoted replacement of Tregs by helper T cells
same,proportions of intratumor Tregs,[2]; percent of total CD4+ T cells in tumors,significantly reduced; also recorded: decreased
same,IFN-γ expression in intratumor CD8+ T cells,[2]; [3],significantly increased; also recorded: enhanced
same,intratumor CD8+ memory T cells (CD27+CD44+ population in TILs),[2]; [3],significantly increased
